The target of assay [1] is T1, Integrin alpha-4/beta-1 (Homo sapiens, UniProt P05556+P13612). In words: In vitro Very late antigen 4 cell adhesion inhibitory activity measured by binding of fluorescently labeled Ramos cells to immobilized VCAM-1. It counts as cell-based.
Assay [2] is described as follows: Inhibition of fluorescent Ramos cell adhesion to ICAM-1 by mouse Mac-1 integrin. Format: functional, cell-based.
The next assay deals with Integrin alpha-5/beta-1 (Homo sapiens, UniProt P05556+P08648). In words: Inhibition of fluorescent Ramos cell adhesion to fibronectin by Very late antigen 5 (VLA-5). Format: functional, cell-based.
Assay [3] addresses T1, Integrin alpha-4/beta-1. As to the kind of experiment: Inhibition of fluorescent Ramos cell adhesion to fibronectin by Very late antigen 4 (VLA-4). It counts as cell-based.
Assay [4] addresses T2, Integrin alpha-4/beta-7 (Homo sapiens, UniProt P13612+P26010).
T2 sequence (P13612 whole entry): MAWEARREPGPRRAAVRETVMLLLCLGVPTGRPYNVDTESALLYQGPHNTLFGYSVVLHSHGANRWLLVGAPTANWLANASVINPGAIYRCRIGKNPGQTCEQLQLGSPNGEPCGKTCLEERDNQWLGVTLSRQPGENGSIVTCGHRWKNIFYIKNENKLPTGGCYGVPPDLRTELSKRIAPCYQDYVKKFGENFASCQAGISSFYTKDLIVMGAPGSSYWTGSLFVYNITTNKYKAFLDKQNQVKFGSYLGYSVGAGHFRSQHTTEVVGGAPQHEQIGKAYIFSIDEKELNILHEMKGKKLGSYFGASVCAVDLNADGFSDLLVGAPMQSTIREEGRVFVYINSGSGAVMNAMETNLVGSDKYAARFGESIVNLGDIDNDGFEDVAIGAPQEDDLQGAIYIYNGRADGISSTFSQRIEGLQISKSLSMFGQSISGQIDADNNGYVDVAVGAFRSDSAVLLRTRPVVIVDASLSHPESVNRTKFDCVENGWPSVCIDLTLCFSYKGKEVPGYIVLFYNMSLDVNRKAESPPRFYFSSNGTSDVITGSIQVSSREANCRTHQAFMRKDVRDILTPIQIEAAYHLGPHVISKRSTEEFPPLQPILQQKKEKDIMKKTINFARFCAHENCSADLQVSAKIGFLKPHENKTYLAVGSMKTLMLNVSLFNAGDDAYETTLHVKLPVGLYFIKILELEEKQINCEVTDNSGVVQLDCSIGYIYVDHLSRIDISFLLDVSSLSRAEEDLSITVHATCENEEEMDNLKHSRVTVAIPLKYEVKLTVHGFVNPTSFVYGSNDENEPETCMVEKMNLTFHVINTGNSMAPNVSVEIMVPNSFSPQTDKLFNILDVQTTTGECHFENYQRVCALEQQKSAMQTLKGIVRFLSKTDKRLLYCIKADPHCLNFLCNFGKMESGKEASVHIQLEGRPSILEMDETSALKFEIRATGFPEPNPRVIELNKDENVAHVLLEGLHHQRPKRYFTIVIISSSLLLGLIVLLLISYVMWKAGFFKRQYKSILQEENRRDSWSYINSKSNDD
T2 sequence (P26010 whole entry): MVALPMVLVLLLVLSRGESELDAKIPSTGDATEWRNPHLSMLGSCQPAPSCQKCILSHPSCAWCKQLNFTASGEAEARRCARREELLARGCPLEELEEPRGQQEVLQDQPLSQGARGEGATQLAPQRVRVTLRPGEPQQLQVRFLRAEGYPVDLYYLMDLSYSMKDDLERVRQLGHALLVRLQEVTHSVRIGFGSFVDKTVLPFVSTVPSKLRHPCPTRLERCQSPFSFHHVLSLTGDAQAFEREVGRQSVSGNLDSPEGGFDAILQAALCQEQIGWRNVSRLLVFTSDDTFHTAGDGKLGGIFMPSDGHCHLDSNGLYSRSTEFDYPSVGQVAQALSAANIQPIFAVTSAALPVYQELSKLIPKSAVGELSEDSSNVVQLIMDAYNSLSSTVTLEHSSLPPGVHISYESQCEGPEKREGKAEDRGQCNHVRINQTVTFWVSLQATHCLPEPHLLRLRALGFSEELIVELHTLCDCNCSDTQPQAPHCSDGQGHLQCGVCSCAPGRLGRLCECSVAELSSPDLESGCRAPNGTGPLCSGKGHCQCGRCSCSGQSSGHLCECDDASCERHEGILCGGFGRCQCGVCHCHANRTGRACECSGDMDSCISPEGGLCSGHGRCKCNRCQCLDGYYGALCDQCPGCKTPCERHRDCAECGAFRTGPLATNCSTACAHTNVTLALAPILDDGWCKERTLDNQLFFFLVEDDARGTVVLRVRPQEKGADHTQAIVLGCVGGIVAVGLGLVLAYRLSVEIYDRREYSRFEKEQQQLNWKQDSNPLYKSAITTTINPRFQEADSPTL
In words: (§1) Inhibition of fluorescent Ramos cell adhesion to VCAM-1 by alpha4-beta7 integrin. Format: cell-based.

Assay [5] can be described thus: Inhibition of fluorescent Ramos cell adhesion to vitronectin by alpha-V-beta-3-alphaV/beta-5 integrins. It counts as functional, cell-based, Homo sapiens.
Assay [6] addresses Integrin alpha-4/beta-1, Rattus norvegicus. In words: Inhibition of fluorescent Ramos cell adhesion to VCAM-1 by rat Very late antigen 4 (VLA-4) integrin.
Assay [7] addresses Integrin alpha-4/beta-1, Mus musculus. As to the kind of experiment: Inhibition of fluorescent Ramos cell adhesion to VCAM-1 by mouse Very late antigen 4 (VLA-4) integrin.
For assay [8], the target named is T2, Integrin alpha-4/beta-7. The assay is described as §1. It counts as protein-complex assay.
Assay [9] addresses Integrin alpha-4/beta-1, Mus musculus. As to the kind of experiment: Inhibition of fluorescent Ramos cell adhesion to VCAM-1 by mouse Very late antigen 4 (VLA-4) integrin. This is another data set of the same source.

T1 sequence (P05556 whole entry, one chain of several): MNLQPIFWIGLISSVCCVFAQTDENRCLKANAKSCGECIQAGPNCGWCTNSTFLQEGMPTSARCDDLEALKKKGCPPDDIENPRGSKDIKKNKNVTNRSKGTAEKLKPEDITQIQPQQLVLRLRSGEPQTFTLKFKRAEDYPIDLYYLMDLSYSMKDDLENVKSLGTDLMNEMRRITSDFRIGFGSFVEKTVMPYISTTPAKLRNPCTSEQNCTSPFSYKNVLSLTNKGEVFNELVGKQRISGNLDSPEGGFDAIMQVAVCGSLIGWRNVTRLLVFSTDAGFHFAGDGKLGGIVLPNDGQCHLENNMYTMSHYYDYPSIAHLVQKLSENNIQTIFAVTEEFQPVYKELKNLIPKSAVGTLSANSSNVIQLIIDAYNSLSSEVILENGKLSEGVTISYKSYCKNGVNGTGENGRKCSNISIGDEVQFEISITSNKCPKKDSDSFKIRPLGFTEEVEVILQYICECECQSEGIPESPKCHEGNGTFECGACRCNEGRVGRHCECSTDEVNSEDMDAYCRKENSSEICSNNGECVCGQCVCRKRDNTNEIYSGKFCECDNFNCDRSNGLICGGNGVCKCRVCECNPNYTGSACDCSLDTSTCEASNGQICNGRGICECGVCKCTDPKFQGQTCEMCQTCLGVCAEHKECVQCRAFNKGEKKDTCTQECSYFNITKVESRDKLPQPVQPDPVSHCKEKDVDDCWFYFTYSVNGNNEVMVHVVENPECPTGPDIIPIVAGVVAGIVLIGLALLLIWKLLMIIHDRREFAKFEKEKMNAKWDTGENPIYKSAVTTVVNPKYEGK
Sequence of Integrin alpha-5/beta-1 (P05556 21-798 limits assumed): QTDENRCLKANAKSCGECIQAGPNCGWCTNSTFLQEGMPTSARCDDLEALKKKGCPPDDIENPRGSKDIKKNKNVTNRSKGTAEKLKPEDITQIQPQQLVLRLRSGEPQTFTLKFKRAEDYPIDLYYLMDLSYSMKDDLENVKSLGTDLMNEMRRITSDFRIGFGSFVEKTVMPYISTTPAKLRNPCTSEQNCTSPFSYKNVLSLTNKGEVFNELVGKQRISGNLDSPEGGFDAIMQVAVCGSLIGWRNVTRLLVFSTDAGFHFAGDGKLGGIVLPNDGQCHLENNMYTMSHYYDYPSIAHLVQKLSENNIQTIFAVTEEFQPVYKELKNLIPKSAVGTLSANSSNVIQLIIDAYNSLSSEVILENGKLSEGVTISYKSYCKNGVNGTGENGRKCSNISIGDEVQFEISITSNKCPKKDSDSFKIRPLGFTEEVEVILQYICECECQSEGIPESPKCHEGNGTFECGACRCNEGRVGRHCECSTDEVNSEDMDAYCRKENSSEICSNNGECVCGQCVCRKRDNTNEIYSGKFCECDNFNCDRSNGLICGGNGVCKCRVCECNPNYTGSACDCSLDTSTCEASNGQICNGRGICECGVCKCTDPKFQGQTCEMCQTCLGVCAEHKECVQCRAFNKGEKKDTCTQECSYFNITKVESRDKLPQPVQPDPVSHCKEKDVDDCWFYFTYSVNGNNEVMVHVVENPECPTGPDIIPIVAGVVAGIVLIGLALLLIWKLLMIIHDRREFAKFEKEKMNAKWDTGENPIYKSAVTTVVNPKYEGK
Sequence of Integrin alpha-5/beta-1 (P08648 42-894 limits assumed): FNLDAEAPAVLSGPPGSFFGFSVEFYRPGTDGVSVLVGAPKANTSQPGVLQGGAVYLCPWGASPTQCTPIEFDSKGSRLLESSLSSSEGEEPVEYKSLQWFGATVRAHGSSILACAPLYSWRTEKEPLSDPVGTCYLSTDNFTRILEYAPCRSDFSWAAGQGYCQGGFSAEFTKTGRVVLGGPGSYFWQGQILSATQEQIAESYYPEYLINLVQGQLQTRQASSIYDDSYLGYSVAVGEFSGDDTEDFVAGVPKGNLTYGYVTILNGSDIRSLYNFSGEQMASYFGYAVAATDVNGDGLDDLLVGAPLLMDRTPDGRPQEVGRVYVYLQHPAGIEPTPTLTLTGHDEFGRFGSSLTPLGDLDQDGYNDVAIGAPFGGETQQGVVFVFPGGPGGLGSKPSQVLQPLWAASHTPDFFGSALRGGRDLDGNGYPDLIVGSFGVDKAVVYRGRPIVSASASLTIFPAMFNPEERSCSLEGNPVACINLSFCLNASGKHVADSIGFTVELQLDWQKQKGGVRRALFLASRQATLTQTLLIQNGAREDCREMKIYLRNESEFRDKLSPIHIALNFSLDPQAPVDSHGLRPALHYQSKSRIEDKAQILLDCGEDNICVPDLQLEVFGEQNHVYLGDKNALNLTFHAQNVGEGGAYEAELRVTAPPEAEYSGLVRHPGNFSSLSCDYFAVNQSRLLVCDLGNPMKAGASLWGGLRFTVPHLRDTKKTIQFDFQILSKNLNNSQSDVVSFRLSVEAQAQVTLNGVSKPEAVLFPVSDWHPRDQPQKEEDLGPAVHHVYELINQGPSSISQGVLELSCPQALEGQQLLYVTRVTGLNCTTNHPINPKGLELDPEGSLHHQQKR
Sequence of Integrin alpha-5/beta-1 (P08648 895-1049 limits assumed): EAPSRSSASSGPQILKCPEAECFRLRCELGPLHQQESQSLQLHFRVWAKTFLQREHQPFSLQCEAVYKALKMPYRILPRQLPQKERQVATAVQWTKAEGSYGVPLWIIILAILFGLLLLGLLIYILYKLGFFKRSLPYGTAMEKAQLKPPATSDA

For `Cc1ccccc1NC(=O)Nc1ccc(CC(=O)N[C@H](CC(=O)N[C@@H](C(=O)O)c2ccccc2)CC(C)C)cc1`, at Integrin alpha-4/beta-1 [1], the IC50 was determined as 6400 nM.
The same measure, in the same setting: as for `Cc1ccccc1NC(=O)Nc1ccc(CC(=O)N[C@@H](CC(C)C)C(=O)N[C@@H](CC(=O)O)c2ccc3c(c2)OCO3)cc1`, the figure is 3 nM.
The same measure, in the same setting: with `Cc1ccccc1NC(=O)Nc1ccc(CC(=O)N[C@@H](CC(=O)N[C@@H](CC(=O)O)c2ccccc2)CC(C)C)cc1` the figure was 262000 nM.
As to `COCCCN(CC(=O)N[C@@H](CC(=O)O)c1ccc(OC)cc1)C(=O)Cc1ccc(NC(=O)Nc2ccccc2C)cc1`, the IC50 is > 500 µM in assay [2]; > 500 µM on Integrin alpha-5/beta-1; 36 nM against Integrin alpha-4/beta-1 [3]; 4.7 nM at Integrin alpha-4/beta-1 [1]; 6.14 µM against Integrin alpha-4/beta-7 [4]; > 100 µM in assay [5]. For the same compound, the IC50 in assay [6] was 27.2 nM; in assay [7] it was 51.9 nM.
On Integrin alpha-4/beta-1 [1], `Cc1ccccc1NC(=O)Nc1ccc(CC(=O)N[C@H](CC(=O)N(CC(=O)O)Cc2ccccc2)CC(C)C)cc1` registered an IC50 of 247000 nM.
Take `Cc1ccccc1NC(=O)Nc1ccc(CC(=O)N[C@H](CC(C)C)C(=O)N(CCC(=O)O)CCc2ccccc2)cc1`: the IC50 at Integrin alpha-4/beta-1 [1] is 37000 nM.
Regarding `C/C=C/[C@@H](CC(=O)O)NC(=O)C[C@@H](CC(C)C)NC(=O)Cc1ccc(NC(=O)Nc2ccccc2C)cc1`, the IC50 at Integrin alpha-4/beta-1 [1] was 103000 nM. Against the preceding compound, the IC50 is about 2.8-fold higher.
On the same count and under the same terms, as for `Cc1ccccc1NC(=O)Nc1ccc(CC(=O)N(CCC(C)C)CC(=O)N[C@@H](CC(=O)O)c2ccccc2)cc1`, the figure is 29 nM; as for `COCCCCN(CC(=O)N[C@@H](CC(=O)O)c1ccc(OC)c(OC)c1)C(=O)Cc1ccc(NC(=O)Nc2ccccc2C)cc1`, 1.3 nM.
Take `Cc1ccccc1NC(=O)Nc1ccc(CC(=O)NN(CC(C)C)C(=O)NC(CC(=O)O)c2ccccc2)cc1` (centres undefined): at Integrin alpha-4/beta-1 [1], the IC50 is 2900 nM.
On to `COCCCN(CC(=O)N[C@@H](CC(=O)O)c1ccc(OC)c(OC)c1)C(=O)Cc1ccc(NC(=O)Nc2ccccc2C)cc1`, for which the IC50 in assay [2] is > 500 µM; against Integrin alpha-5/beta-1, > 500 µM; at Integrin alpha-4/beta-1 [3], 13.4 nM; at Integrin alpha-4/beta-1 [1], 7.1 nM; against Integrin alpha-4/beta-7 [8], > 100 µM; in [5], > 100 µM. Moreover, the IC50 in [6] stood at 21.6 nM; in assay [7], 27.3 nM.
As for `COc1ccc([C@H](CC(=O)O)NC(=O)CN(CCC(C)C)C(=O)Cc2ccc(NC(=O)Nc3ccccc3C)cc2)cc1OC`, the IC50 on Integrin alpha-4/beta-1 [1] came to 20 nM. That is a double-digit nanomolar value.
Compound `C=CCN(CC(=O)O)NC(=O)[C@@H](CC(C)C)NC(=O)Cc1ccc(NC(=O)Nc2ccccc2C)cc1` displayed an IC50 at Integrin alpha-4/beta-1 [1] of 11000 nM.
For `C/C=C/[C@H](CC(=O)O)NC(=O)CN(CCC(C)C)C(=O)Cc1ccc(NC(=O)Nc2ccccc2C)cc1`, the IC50 on Integrin alpha-4/beta-1 [1] is 45 nM.
Still for that read-out and setting: as for `CCOC(=O)C[C@H](NC(=O)CN(CCCOC)C(=O)Cc1ccc(NC(=O)Nc2ccccc2C)cc1)c1ccc(OC)cc1`, the figure is 75000 nM; as for `C=CCC(CC(=O)O)NC(=O)N(CC(C)C)NC(=O)Cc1ccc(NC(=O)Nc2ccccc2C)cc1` (centres undefined), 5900 nM; as for `Cc1ccccc1NC(=O)Nc1ccc(CC(=O)N[C@H](CC(=O)N[C@@H](CC(=O)O)c2ccccc2)CC(C)C)cc1`, 7300 nM.
For the compound `C/C=C/[C@H](CC(=O)O)NC(=O)CN(CCCOC)C(=O)Cc1ccc(NC(=O)Nc2ccccc2C)cc1`, the IC50 in assay [2] is > 500 µM; at Integrin alpha-5/beta-1, > 500 µM; on Integrin alpha-4/beta-1 [3], 7.9 nM; on Integrin alpha-4/beta-1 [1], 15.4 nM; on Integrin alpha-4/beta-7 [8], > 100 µM; in [5], 59 µM. Moreover, the IC50 is 20.5 nM in assay [6] and 7.7 nM in assay [9].
For the compound `C=CC[C@H](CC(=O)O)NC(=O)[C@H](CC(C)C)NC(=O)Cc1ccc(NC(=O)Nc2ccccc2C)cc1`, at Integrin alpha-4/beta-1 [1], the IC50 was determined as 16.5 nM.
For the compound `COCCCN(CC(=O)N[C@@H](CC(=O)O)c1ccccc1)C(=O)Cc1ccc(NC(=O)Nc2ccccc2C)cc1`, the IC50 in assay [2] was > 500 µM; on Integrin alpha-5/beta-1, > 500 µM; against Integrin alpha-4/beta-1 [3] it was 14.4 nM; on Integrin alpha-4/beta-1 [1] it was 11.7 nM; on Integrin alpha-4/beta-7 [8] it was > 100 µM; in assay [5] it was > 100 µM. The half-maximal inhibitory concentration (IC50) in [6] turned out to be 24.5 nM; in [7], 21.7 nM.
Take `Cc1ccccc1NC(=O)Nc1ccc(CC(=O)N(CCC(C)C)CC(=O)N(CCC(=O)O)CCc2ccccc2)cc1`: the IC50 at Integrin alpha-4/beta-1 [1] came out at 98 nM.

What is called IC50 is the point on the concentration scale where inhibition reaches its midpoint. High values mean weaker potency, low ones greater potency.

For the origin of these results see ChEMBL document CHEMBL1134819, “Design and synthesis of potent and selective inhibitors of integrin VLA-4” (Bioorg Med Chem Lett, 2001).
